We go through one compound from ChEMBL document CHEMBL3832540, “DailyMed|setid=3ce9ee32-b18b-4ef3-b127-ce479d520e1a | BRILINTA- ticagrelor tablet|Bryant Ranch Prepack”.

Data set [1] is described as follows: (§1) Evaluation of pharmacokinetic parameters for Ticagrelor following oral administration of Ticagrelor tablets (BRILINTA). The note with it: human, in vivo, dosed compound id 12, dosed compound name TICAGRELOR, tissue Plasma. The format is ADME, organism-based.
A further data set concerns Homo sapiens. Described as §1. In kind it is ADME, organism-based. The following applies: in vivo, po, dosed compound id 12, dosed compound name TICAGRELOR, tissue Plasma.

In the case of `CCCSc1nc(N[C@@H]2C[C@H]2c2ccc(F)c(F)c2)c2nnn([C@@H]3C[C@H](OCCO)[C@@H](O)[C@H]3O)c2n1` [TICAGRELOR], in data set [1], the Tmax stood at 1.5 h, the bioavailability amounted to 36% and the half-life was 7 h. In the data set on Homo sapiens, the Protein bound came out at 99% and the Vd is recorded as 88 L.
